Non-standard residues stand in square brackets, D forms with d. No end group written: not given here. hArg = N=C(N)NCCCC[C@H](N)C(=O)O; Agb = N=C(N)NCC[C@H](N)C(=O)O; Orn = NCCC[C@H](N)C(=O)O; Dab = NCC[C@H](N)C(=O)O
System: S. aureus (MRSA SAP0017)
Type: cell-based, Staphylococcus aureus
Conditions: for % Biofilm Inhibition: SPOT synthesized control peptides, determined as in Table 5, Table 7; for % Residual MRSA biofilm growth compared to untreated control: SPOT synthesized peptide, ~12.5 μM, clinical MRSA strain, crystal violet assay
Method: Methods of assessment of anti-biofilm activity: MRSA S. aureus strain SAP0017 biofilm formation was initially analyzed using a static abiotic solid surface assay as described elsewhere (de la Fuente-Nunez et al., 2012) and shown graphically in FIG. 2. Dilutions (1/100) of overnight cultures were incubated in BM2 biofilm-adjusted medium [62 mM potassium phosphate buffer (pH 7), 7 mM (NH4)2SO4, 2 mM MgSO4, 10 μM FeSO4, 0.4% (wt/vol) glucose, 0.5% (wt/vol) Casamino Acids], or a nutrient rich medium such as Tryptic soy broth supplemented with 1% glucose, in polypropylene microtiter plates (Falcon, United States) in the absence (control) or presence of peptide. Peptide was added at time zero (prior to adding the diluted, overnight cultures) in varying concentrations, and the amount biofilm formation was recorded after 22-46 h incubation for most bacteria. To quantify biofilm growth, planktonic cells were removed and biofilm cells adhering to the side of the wells were stained with crystal violet, and absorbance at 595 nm was measured using a microtiter plate reader (Bio-Tek Instruments Inc., United States).

Substance | % Biofilm Inhibition [%] | % Residual MRSA biofilm growth compared to untreated control [%]
C108 (VRLI[Orn]AVRIWRR-NH2; N-terminus assumed; SMILES CC[C@H](C)[C@H](NC(=O)[C@H](CC(C)C)NC(=O)[C@H](CCCNC(=N)N)NC(=O)[C@@H](N)C(C)C)C(=O)N[C@@H](CCCN)C(=O)N[C@@H](C)C(=O)N[C@H](C(=O)N[C@@H](CCCNC(=N)N)C(=O)N[C@H](C(=O)N[C@@H](Cc1c[nH]c2ccccc12)C(=O)N[C@@H](CCCNC(=N)N)C(=O)N[C@@H](CCCNC(=N)N)C(N)=O)[C@@H](C)CC)C(C)C) [Peptide C108] | 104 | 
C109 (VRLIVA[Orn]RIWRR-NH2; N-terminus assumed; SMILES CC[C@H](C)[C@H](NC(=O)[C@H](CCCNC(=N)N)NC(=O)[C@H](CCCN)NC(=O)[C@H](C)NC(=O)[C@@H](NC(=O)[C@@H](NC(=O)[C@H](CC(C)C)NC(=O)[C@H](CCCNC(=N)N)NC(=O)[C@@H](N)C(C)C)[C@@H](C)CC)C(C)C)C(=O)N[C@@H](Cc1c[nH]c2ccccc12)C(=O)N[C@@H](CCCNC(=N)N)C(=O)N[C@@H](CCCNC(=N)N)C(N)=O) [Peptide C109] | 104 | 
C110 (VRLIVAVR[Orn]WRR-NH2; N-terminus assumed; SMILES CC[C@H](C)[C@H](NC(=O)[C@H](CC(C)C)NC(=O)[C@H](CCCNC(=N)N)NC(=O)[C@@H](N)C(C)C)C(=O)N[C@H](C(=O)N[C@@H](C)C(=O)N[C@H](C(=O)N[C@@H](CCCNC(=N)N)C(=O)N[C@@H](CCCN)C(=O)N[C@@H](Cc1c[nH]c2ccccc12)C(=O)N[C@@H](CCCNC(=N)N)C(=O)N[C@@H](CCCNC(=N)N)C(N)=O)C(C)C)C(C)C) [Peptide C110] | 100 | 
C111 (VRLIVAVRI[Orn]RR) [Peptide C111] | 92 | 
DabRLIVAVRIWRR ([Dab]RLIVAVRIWRR-NH2; N-terminus assumed; SMILES CC[C@H](C)[C@H](NC(=O)[C@H](CCCNC(=N)N)NC(=O)[C@@H](NC(=O)[C@H](C)NC(=O)[C@@H](NC(=O)[C@@H](NC(=O)[C@H](CC(C)C)NC(=O)[C@H](CCCNC(=N)N)NC(=O)[C@@H](N)CCN)[C@@H](C)CC)C(C)C)C(C)C)C(=O)N[C@@H](Cc1c[nH]c2ccccc12)C(=O)N[C@@H](CCCNC(=N)N)C(=O)N[C@@H](CCCNC(=N)N)C(N)=O) [Peptide 1018-k13] |  | 59
GbutRLIVAVRIWRR ([Agb]RLIVAVRIWRR-NH2; N-terminus assumed; SMILES CC[C@H](C)[C@H](NC(=O)[C@H](CCCNC(=N)N)NC(=O)[C@@H](NC(=O)[C@H](C)NC(=O)[C@@H](NC(=O)[C@@H](NC(=O)[C@H](CC(C)C)NC(=O)[C@H](CCCNC(=N)N)NC(=O)[C@@H](N)CCNC(=N)N)[C@@H](C)CC)C(C)C)C(C)C)C(=O)N[C@@H](Cc1c[nH]c2ccccc12)C(=O)N[C@@H](CCCNC(=N)N)C(=O)N[C@@H](CCCNC(=N)N)C(N)=O) [Peptide 1018-r13] |  | 47
HarRLIVAVRIWRR ([hArg]RLIVAVRIWRR-NH2; N-terminus assumed; SMILES CC[C@H](C)[C@H](NC(=O)[C@H](CCCNC(=N)N)NC(=O)[C@@H](NC(=O)[C@H](C)NC(=O)[C@@H](NC(=O)[C@@H](NC(=O)[C@H](CC(C)C)NC(=O)[C@H](CCCNC(=N)N)NC(=O)[C@@H](N)CCCCNC(=N)N)[C@@H](C)CC)C(C)C)C(C)C)C(=O)N[C@@H](Cc1c[nH]c2ccccc12)C(=O)N[C@@H](CCCNC(=N)N)C(=O)N[C@@H](CCCNC(=N)N)C(N)=O) [Peptide 1018-r25] |  | 64
IVKWIAQWKLVG (IVKWIAQWKLVG-NH2) [Imax-10] |  | 100
KKQKKIWRRILV (KKQKKIWRRILV-NH2) [Mmax-16] |  | 105
OrnRLIVAVRIWRR ([Orn]RLIVAVRIWRR-NH2; N-terminus assumed; SMILES CC[C@H](C)[C@H](NC(=O)[C@H](CCCNC(=N)N)NC(=O)[C@@H](NC(=O)[C@H](C)NC(=O)[C@@H](NC(=O)[C@@H](NC(=O)[C@H](CC(C)C)NC(=O)[C@H](CCCNC(=N)N)NC(=O)[C@@H](N)CCCN)[C@@H](C)CC)C(C)C)C(C)C)C(=O)N[C@@H](Cc1c[nH]c2ccccc12)C(=O)N[C@@H](CCCNC(=N)N)C(=O)N[C@@H](CCCNC(=N)N)C(N)=O) [Peptide 1018-k25] |  | 44
RQVRVKRWRARW (RQVRVKRWRARW-NH2) [Mmax-18] |  | 100
VKGAIKRGIWVK (VKGAIKRGIWVK-NH2) [Imax-5] |  | 99
VOrnLIVAVRIWRR (V[Orn]LIVAVRIWRR-NH2; N-terminus assumed; SMILES CC[C@H](C)[C@H](NC(=O)[C@H](CCCNC(=N)N)NC(=O)[C@@H](NC(=O)[C@H](C)NC(=O)[C@@H](NC(=O)[C@@H](NC(=O)[C@H](CC(C)C)NC(=O)[C@H](CCCN)NC(=O)[C@@H](N)C(C)C)[C@@H](C)CC)C(C)C)C(C)C)C(=O)N[C@@H](Cc1c[nH]c2ccccc12)C(=O)N[C@@H](CCCNC(=N)N)C(=O)N[C@@H](CCCNC(=N)N)C(N)=O) [Peptide 1018-k26] |  | 63
VRLIVAVHarIWRR (VRLIVAV[hArg]IWRR-NH2; N-terminus assumed; SMILES CC[C@H](C)[C@H](NC(=O)[C@H](CCCCNC(=N)N)NC(=O)[C@@H](NC(=O)[C@H](C)NC(=O)[C@@H](NC(=O)[C@@H](NC(=O)[C@H](CC(C)C)NC(=O)[C@H](CCCNC(=N)N)NC(=O)[C@@H](N)C(C)C)[C@@H](C)CC)C(C)C)C(C)C)C(=O)N[C@@H](Cc1c[nH]c2ccccc12)C(=O)N[C@@H](CCCNC(=N)N)C(=O)N[C@@H](CCCNC(=N)N)C(N)=O) [Peptide 1018-r32] |  | 45
VRLIVAVOrnIWRR (VRLIVAV[Orn]IWRR-NH2; N-terminus assumed; SMILES CC[C@H](C)[C@H](NC(=O)[C@H](CCCN)NC(=O)[C@@H](NC(=O)[C@H](C)NC(=O)[C@@H](NC(=O)[C@@H](NC(=O)[C@H](CC(C)C)NC(=O)[C@H](CCCNC(=N)N)NC(=O)[C@@H](N)C(C)C)[C@@H](C)CC)C(C)C)C(C)C)C(=O)N[C@@H](Cc1c[nH]c2ccccc12)C(=O)N[C@@H](CCCNC(=N)N)C(=O)N[C@@H](CCCNC(=N)N)C(N)=O) [Peptide 1018-k32] |  | 46
VRLIVAVRIWHarR (VRLIVAVRIW[hArg]R-NH2; N-terminus assumed; SMILES CC[C@H](C)[C@H](NC(=O)[C@H](CCCNC(=N)N)NC(=O)[C@@H](NC(=O)[C@H](C)NC(=O)[C@@H](NC(=O)[C@@H](NC(=O)[C@H](CC(C)C)NC(=O)[C@H](CCCNC(=N)N)NC(=O)[C@@H](N)C(C)C)[C@@H](C)CC)C(C)C)C(C)C)C(=O)N[C@@H](Cc1c[nH]c2ccccc12)C(=O)N[C@@H](CCCCNC(=N)N)C(=O)N[C@@H](CCCNC(=N)N)C(N)=O) [Peptide 1018-r35] |  | 33
VRLIVAVRIWOrnR (VRLIVAVRIW[Orn]R-NH2; N-terminus assumed; SMILES CC[C@H](C)[C@H](NC(=O)[C@H](CCCNC(=N)N)NC(=O)[C@@H](NC(=O)[C@H](C)NC(=O)[C@@H](NC(=O)[C@@H](NC(=O)[C@H](CC(C)C)NC(=O)[C@H](CCCNC(=N)N)NC(=O)[C@@H](N)C(C)C)[C@@H](C)CC)C(C)C)C(C)C)C(=O)N[C@@H](Cc1c[nH]c2ccccc12)C(=O)N[C@@H](CCCN)C(=O)N[C@@H](CCCNC(=N)N)C(N)=O) [Peptide 1018-k35] |  | 34
VRLIVAVRIWRHar (VRLIVAVRIWR[hArg]-NH2; N-terminus assumed; SMILES CC[C@H](C)[C@H](NC(=O)[C@H](CCCNC(=N)N)NC(=O)[C@@H](NC(=O)[C@H](C)NC(=O)[C@@H](NC(=O)[C@@H](NC(=O)[C@H](CC(C)C)NC(=O)[C@H](CCCNC(=N)N)NC(=O)[C@@H](N)C(C)C)[C@@H](C)CC)C(C)C)C(C)C)C(=O)N[C@@H](Cc1c[nH]c2ccccc12)C(=O)N[C@@H](CCCNC(=N)N)C(=O)N[C@@H](CCCCNC(=N)N)C(N)=O) [Peptide 1018-r36] |  | 27
VRLIVAVRIWROrn (VRLIVAVRIWR[Orn]-NH2; N-terminus assumed; SMILES CC[C@H](C)[C@H](NC(=O)[C@H](CCCNC(=N)N)NC(=O)[C@@H](NC(=O)[C@H](C)NC(=O)[C@@H](NC(=O)[C@@H](NC(=O)[C@H](CC(C)C)NC(=O)[C@H](CCCNC(=N)N)NC(=O)[C@@H](N)C(C)C)[C@@H](C)CC)C(C)C)C(C)C)C(=O)N[C@@H](Cc1c[nH]c2ccccc12)C(=O)N[C@@H](CCCNC(=N)N)C(=O)N[C@@H](CCCN)C(N)=O) [Peptide 1018-k36] |  | 20
VRLIVHarVRIWRR (VRLIV[hArg]VRIWRR-NH2; N-terminus assumed; SMILES CC[C@H](C)[C@H](NC(=O)[C@H](CCCNC(=N)N)NC(=O)[C@@H](NC(=O)[C@H](CCCCNC(=N)N)NC(=O)[C@@H](NC(=O)[C@@H](NC(=O)[C@H](CC(C)C)NC(=O)[C@H](CCCNC(=N)N)NC(=O)[C@@H](N)C(C)C)[C@@H](C)CC)C(C)C)C(C)C)C(=O)N[C@@H](Cc1c[nH]c2ccccc12)C(=O)N[C@@H](CCCNC(=N)N)C(=O)N[C@@H](CCCNC(=N)N)C(N)=O) [Peptide 1018-r30] |  | 57

Source: US20210138025A1, “CATIONIC PEPTIDES WITH IMMUNOMODULATORY AND/OR ANTI-BIOFILM ACTIVITIES” (priority 2018, published 2021)
